Results taken from US6737383B1, “Herbicidal oxadiazolidines” (priority 1999, dated 2004).

How the values were obtained:
cocklebur = experiment: Test B pre/postemergence cocklebur; assay type: in vivo, Xanthium strumarium
Outline: (§1)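 Test chemicals in a non-phytotoxic solvent mixture with surfactant were sprayed preemergence onto planted seeds and postemergence onto plants 2 to 18 cm tall (1- to 4-leaf stage). After twelve to sixteen days in a greenhouse, injury was visually rated against untreated controls from 0 (no effect) to 10 (complete control).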

rice = experiment: Test B flood test rice; assay type: in vivo, Oryza sativa
Outline: (§2)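 Plants were grown to the 2-leaf stage before treatment with test chemical, then held in a greenhouse for twelve to sixteen days. Injury was visually rated against untreated controls on a 0–10 scale, where 0 is no effect and 10 is complete control.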

corn = experiment: Test B pre/postemergence corn; assay type: in vivo, Zea mays
Outline: as §1

surinam grass = experiment: Test B pre/postemergence surinam grass; assay type: in vivo, Brachiaria decumbens
Outline: as §1

purple nutsedge = experiment: Test B pre/postemergence purple nutsedge; assay type: in vivo, Cyperus rotundus
Outline: as §1

duck salad = experiment: Test B flood test duck salad; assay type: in vivo, Heteranthera limosa
Outline: as §2

bamyardgrass = experiment: Test B flood test barnyardgrass; assay type: in vivo, Echinochloa crus-galli
Outline: as §2

wild oat = experiment: Test B pre/postemergence wild oat; assay type: in vivo, Avena fatua
Outline: as §1

smallflower flatsedge = experiment: Test B flood test smallflower flatsedge; assay type: in vivo, Cyperus difformis
Outline: as §2

morningglory = experiment: Test B pre/postemergence morningglory; assay type: in vivo, Ipomoea hederacea
Outline: as §1

crabgrass = experiment: Test B pre/postemergence crabgrass; assay type: in vivo, Digitaria sanguinalis
Outline: as §1

rape = experiment: Test B pre/postemergence rape; assay type: in vivo, Brassica napus
Outline: as §1

sugar beet = experiment: Test B pre/postemergence sugar beet; assay type: in vivo, Beta vulgaris
Outline: as §1

wheat = experiment: Test B pre/postemergence wheat; assay type: in vivo, Triticum aestivum
Outline: as §1

pigweed = experiment: Test B pre/postemergence pigweed; assay type: in vivo, Amaranthus retroflexus
Outline: as §1

giant foxtail = experiment: Test B pre/postemergence giant foxtail; assay type: in vivo, Setaria faberii
Outline: as §1

[1] = Postemergence, Rate 62 g/ha, scale 0 to 10, 0 is no effect, 10 is complete control
[2] = Postemergence, Rate 250 g/ha, scale 0 to 10, 0 no effect, 10 complete control
[3] = Preemergence, Rate 62 g/ha, scale 0 to 10 (0 no effect, 10 complete control)
[4] = Preemergence, Rate 125 g/ha, scale 0 to 10 (0 no effect, 10 complete control)
[5] = Preemergence, Rate 250 g/ha, scale of 0 to 10 where 0 is no effect and 10 is complete control
[6] = Preemergence, Rate 500 g/ha, scale 0 (no effect) to 10 (complete control)
[7] = Rate 125 g/ha, Postemergence, scale 0 to 10, 0 no effect, 10 complete control
[8] = Rate 500 g/ha, Postemergence, scale 0 to 10, 0 no effect, 10 complete control
[9] = Rate 125 g/ha, Postemergence section (flood test species), scale 0 to 10, 0 no effect, 10 complete control
[10] = Rate 250 g/ha, headed Pre-emergence (flood test species), scale 0 to 10 (0 no effect, 10 complete control)
[11] = Rate 500 g/ha, headed Pre-emergence (flood test species), scale 0 to 10 (0 no effect, 10 complete control)
[12] = Rate 500 g/ha, listed under Postemergence (flood test species), scale 0 to 10, 0 no effect, 10 complete control
[13] = Rate 1000 g/ha, Pre-emergence (as headed), scale 0 to 10
[14] = Rate 2000 g/ha, Pre-emergence (as headed), scale 0 to 10
[15] = flood test, listed under Postemergence, Rate 250 g/ha, scale 0 to 10, 0 no effect, 10 complete control

CC(C)N(C(=O)n1oc(=O)n(Cc2cccs2)c1=O)c1ccc(F)cc1F [Compound 86]
4: Plant response rating, B. signalgrass (surinam grass; [5]) | Plant response rating, Wild oats (wild oat; [5]) | Morningglory plant response rating (morningglory; [1]) | Rape plant response rating (rape; [6]) | Rape plant response rating (rape; [8]) | Plant response rating, Redroot pigweed (pigweed; [4])
1: Cocklebur plant response rating (cocklebur; [7])
10: Plant response rating, Crabgrass (crabgrass; [5]) | Crabgrass plant response rating (crabgrass; [6]) | Plant response rating, Giant foxtail (giant foxtail; [5]) | Giant foxtail plant response rating (giant foxtail; [6])
3: Crabgrass plant response rating (crabgrass; [7]) | Sugarbeets plant response rating (sugar beet; [2]) | Plant response rating, Sugarbeets (sugar beet; [5]) | Sugarbeets plant response rating (sugar beet; [6]) | Sugarbeets plant response rating (sugar beet; [7]) | Giant foxtail plant response rating (giant foxtail; [2])
7: B. signalgrass plant response rating (surinam grass; [6]) | Morningglory plant response rating (morningglory; [2]) | Morningglory plant response rating (morningglory; [7]) | Redroot pigweed plant response rating (pigweed; [8])
8: Rice plant response rating (rice; [14]) | Morningglory plant response rating (morningglory; [8]) | Plant response rating, Crabgrass (crabgrass; [4]) | Plant response rating, Redroot pigweed (pigweed; [5]) | Redroot pigweed plant response rating (pigweed; [6]) | Giant foxtail plant response rating (giant foxtail; [3])
6: Sugarbeets plant response rating (sugar beet; [8])
00: Corn plant response rating (corn; [2])
9: Crabgrass plant response rating (crabgrass; [8]) | Plant response rating, Giant foxtail (giant foxtail; [4])
5: Wild oats plant response rating (wild oat; [6]) | Crabgrass plant response rating (crabgrass; [2]) | Crabgrass plant response rating (crabgrass; [3]) | Redroot pigweed plant response rating (pigweed; [2]) | Giant foxtail plant response rating (giant foxtail; [8])
0: Cocklebur plant response rating (cocklebur; [1]) | Cocklebur plant response rating (cocklebur; [3]) | Plant response rating, Cocklebur (cocklebur; [4]) | Plant response rating, Cocklebur (cocklebur; [5]) | Cocklebur plant response rating (cocklebur; [6]) | Rice plant response rating (rice; [1]) | Rice plant response rating (rice; [9]) | Rice plant response rating (rice; [10]) | Plant response rating, Rice (rice; [11]) | Rice plant response rating (rice; [12]) | Rice plant response rating (rice; [13]) | Rice plant response rating (rice; [15]) | Corn plant response rating (corn; [1]) | Corn plant response rating (corn; [3]) | Plant response rating, Corn (corn; [4]) | Plant response rating, Corn (corn; [5]) | Corn plant response rating (corn; [6]) | Corn plant response rating (corn; [7]) | Corn plant response rating (corn; [8]) | B. signalgrass plant response rating (surinam grass; [1]) | B. signalgrass plant response rating (surinam grass; [2]) | B. signalgrass plant response rating (surinam grass; [3]) | B. signalgrass plant response rating (surinam grass; [7]) | B. signalgrass plant response rating (surinam grass; Rate 500 g/ha, Postemergence, scale of 0 to 10 where 0 is no effect and 10 is complete control) | Nutsedge plant response rating (purple nutsedge; [1]) | Nutsedge plant response rating (purple nutsedge; [2]) | Nutsedge plant response rating (purple nutsedge; [3]) | Plant response rating, Nutsedge (purple nutsedge; [4]) | Plant response rating, Nutsedge (purple nutsedge; [5]) | Nutsedge plant response rating (purple nutsedge; [6]) | Nutsedge plant response rating (purple nutsedge; [7]) | Nutsedge plant response rating (purple nutsedge; [8]) | Ducksalad plant response rating (duck salad; [1]) | Ducksalad plant response rating (duck salad; [9]) | Ducksalad plant response rating (duck salad; [10]) | Plant response rating, Ducksalad (duck salad; [11]) | Ducksalad plant response rating (duck salad; [12]) | Ducksalad plant response rating (duck salad; [13]) | Ducksalad plant response rating (duck salad; [14]) | Ducksalad plant response rating (duck salad; [15]) | Barnyardgrass plant response rating (bamyardgrass; [1]) | Barnyardgrass plant response rating (bamyardgrass; [9]) | Barnyardgrass plant response rating (bamyardgrass; [10]) | Plant response rating, Barnyardgrass (bamyardgrass; [11]) | Barnyardgrass plant response rating (bamyardgrass; [12]) | Barnyardgrass plant response rating (bamyardgrass; [13]) | Barnyardgrass plant response rating (bamyardgrass; Rate 2000 g/ha, Pre-emergence (as headed), scale 0 to 10, 0 no effect, 10 complete control) | Barnyardgrass plant response rating (bamyardgrass; [15]) | Wild oats plant response rating (wild oat; [1]) | Wild oats plant response rating (wild oat; [2]) | Wild oats plant response rating (wild oat; [3]) | Plant response rating, Wild oats (wild oat; [4]) | Wild oats plant response rating (wild oat; [7]) | Wild oats plant response rating (wild oat; [8]) | S. Flatsedge plant response rating (smallflower flatsedge; [1]) | S. Flatsedge plant response rating (smallflower flatsedge; Pre-emergence, Rate 1000 g/ha, scale 0 to 10 (0 no effect, 10 complete control)) | S. Flatsedge plant response rating (smallflower flatsedge; [9]) | S. Flatsedge plant response rating (smallflower flatsedge; [10]) | Plant response rating, S. Flatsedge (smallflower flatsedge; [11]) | S. Flatsedge plant response rating (smallflower flatsedge; [12]) | S. Flatsedge plant response rating (smallflower flatsedge; [14]) | S. Flatsedge plant response rating (smallflower flatsedge; [15]) | Morningglory plant response rating (morningglory; [3]) | Plant response rating, Morningglory (morningglory; [4]) | Plant response rating, Morningglory (morningglory; [5]) | Morningglory plant response rating (morningglory; [6]) | Rape plant response rating (rape; [1]) | Rape plant response rating (rape; [3]) | Plant response rating, Rape (rape; [4]) | Plant response rating, Rape (rape; [5]) | Rape plant response rating (rape; [7]) | Sugarbeets plant response rating (sugar beet; [1]) | Sugarbeets plant response rating (sugar beet; [3]) | Plant response rating, Sugarbeets (sugar beet; [4]) | Wheat plant response rating (wheat; [1]) | Wheat plant response rating (wheat; [2]) | Wheat plant response rating (wheat; [3]) | Plant response rating, Wheat (wheat; [4]) | Plant response rating, Wheat (wheat; [5]) | Wheat plant response rating (wheat; [6]) | Wheat plant response rating (wheat; [7]) | Wheat plant response rating (wheat; [8]) | Redroot pigweed plant response rating (pigweed; [1]) | Redroot pigweed plant response rating (pigweed; [7]) | Giant foxtail plant response rating (giant foxtail; [1])
2: Cocklebur plant response rating (cocklebur; [2]) | Cocklebur plant response rating (cocklebur; [8]) | Plant response rating, B. signalgrass (surinam grass; [4]) | Crabgrass plant response rating (crabgrass; [1]) | Rape plant response rating (rape; [2]) | Redroot pigweed plant response rating (pigweed; [3]) | Giant foxtail plant response rating (giant foxtail; [7])
